In patent EP2650284A1, “Heterocyclic derivatives as metabotropic glutamate receptor modulators” (Merz Pharma GmbH & Co. KGaA, priority 2012, dated 2013):

Columns and labels:
mGluR5 receptors = biological target: T1, mGluR5 receptors (Rattus norvegicus, UniProt P31424); test: Cytosolic calcium studies with astrocytes (FLIPR), functional assay of mGluR5 receptors; type: cell-based; settings: for r left shift: Table A1, left shift of quisqualate EC50 in the presence and absence of 10 µM modulator; for EC50: Table A1, positive modulators, fixed concentration of quisqualate (normally 10-30 nM), read-out: rEC50
T1 construct: Primary astrocyte cultures are prepared from cortices of newborn rats; endogenous in cells; host or cells: primary cortical astrocytes from Sprague-Dawley rat pups (2-4 d old)
T1 sequence (P31424 21-1203): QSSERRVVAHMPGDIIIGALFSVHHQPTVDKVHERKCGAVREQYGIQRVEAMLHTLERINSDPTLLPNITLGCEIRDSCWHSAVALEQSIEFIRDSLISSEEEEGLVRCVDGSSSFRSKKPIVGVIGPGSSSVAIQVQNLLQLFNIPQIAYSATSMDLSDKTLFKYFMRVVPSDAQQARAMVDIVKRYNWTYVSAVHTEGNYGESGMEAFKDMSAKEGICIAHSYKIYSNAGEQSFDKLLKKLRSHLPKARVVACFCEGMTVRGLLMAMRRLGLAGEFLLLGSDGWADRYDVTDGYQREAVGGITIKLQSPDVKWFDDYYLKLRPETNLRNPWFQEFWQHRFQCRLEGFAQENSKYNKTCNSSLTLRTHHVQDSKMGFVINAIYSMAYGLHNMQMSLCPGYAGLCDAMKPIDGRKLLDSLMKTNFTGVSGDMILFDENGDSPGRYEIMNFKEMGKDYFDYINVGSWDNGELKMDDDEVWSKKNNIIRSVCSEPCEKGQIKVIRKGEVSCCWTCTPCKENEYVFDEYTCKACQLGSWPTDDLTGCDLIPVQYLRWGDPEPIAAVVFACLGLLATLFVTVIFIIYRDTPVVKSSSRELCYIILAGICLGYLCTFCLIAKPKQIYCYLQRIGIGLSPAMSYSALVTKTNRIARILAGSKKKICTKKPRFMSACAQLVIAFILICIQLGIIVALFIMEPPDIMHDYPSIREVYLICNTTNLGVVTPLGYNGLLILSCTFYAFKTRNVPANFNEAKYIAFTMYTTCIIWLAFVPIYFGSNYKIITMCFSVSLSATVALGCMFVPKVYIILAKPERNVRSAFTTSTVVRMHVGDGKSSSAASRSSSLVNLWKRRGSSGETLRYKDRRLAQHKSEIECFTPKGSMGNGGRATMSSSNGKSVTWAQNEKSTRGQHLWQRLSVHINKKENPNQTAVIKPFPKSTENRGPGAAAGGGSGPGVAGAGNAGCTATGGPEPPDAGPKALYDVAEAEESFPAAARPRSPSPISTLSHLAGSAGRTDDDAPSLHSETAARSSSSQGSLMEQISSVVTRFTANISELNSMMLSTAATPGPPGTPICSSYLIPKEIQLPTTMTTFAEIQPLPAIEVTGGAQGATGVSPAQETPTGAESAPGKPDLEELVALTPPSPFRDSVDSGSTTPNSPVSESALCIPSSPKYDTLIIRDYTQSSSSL
Description: Primary astrocyte cultures are prepared from cortices of newborn rats as described by Booher and Sensenbrenner (1972, Neurobiology 2(3):97-105). Briefly, Sprague-Dawley rat pups (2 - 4 d old) are decapitated and neocortices are dissected, disintegrated with a nylon filter (pore size 80 µm) and carefully triturated. The cell suspension is plated on poly-D-lysine pre-coated flasks (Costar, Netherlands) and cultivated in Dulbecco's Modified Eagle's Medium (DMEM, Invitrogen, Germany) supplemented with 10% foetal calf serum (FCS, Sigma, Germany), 4 mM glutamine and 50 µg/ml gentamycin (both Biochrom, Germany) at 37°C in a humidified atmosphere of 5% CO2/ 95% air for 7 days with exchanging the medium at day 2 and 6.
After 7 days in vitro (DIV), cells are shaken overnight at 250 rpm to remove oligodendrocytes and microglia. The next day, astrocytes are rinsed twice with CMF-PBS (calcium- and magnesium-free phosphate buffered saline, Biochrom, Germany), trypsinized and subplated on poly-D-lysine pre-coated 96-well plates (Greiner, Germany) at a density of 40,000 cells/well. 24 h after establishing the secondary culture the astrocytes are rinsed with PBS^++ (phosphate buffered saline, Biochrom, Germany) and fed with astrocyte-defined medium (ADM) consisting of DMEM containing 1x G5-supplement (Invitrogen, Germany), 0.5 µg/ml heparan sulfate, and 1.5 µg/ml fibronectin (both Sigma, Germany) (Miller et al., (1993) Brain Res. 618(1):175-8). 3 days later the medium is exchanged and the cells incubated for another 2-3 days, so that at the time of experiments astrocytes are 14-15 DIV.
The increase of cytosolic calcium after stimulation with the mGluR5 agonist L-quisqualate is measured using a fluorometric imaging plate reader (FLIPR) and the Ca-Kit (both Molecular Devices). Prior to addition of agonist or antagonist the medium is aspirated and cells are loaded for 2 h at RT with 150 µl of loading buffer consisting of Ca-sensitive dye reconstituted in sodium chloride (123 mM), potassium chloride (5.4 mM), magnesium chloride (0.8 mM), calcium chloride (1.8 mM), D-glucose (15 mM), and HEPES (20 mM), pH 7.3. Subsequently, plates are transferred to FLIPR to detect calcium increase with the addition of L-quisqualate (100 nM) measured as relative fluorescence units (RFU). If antagonists are tested, these compounds are pre-incubated for 10 minutes at RT before addition of the respective agonist.
For positive modulators, concentration-response curves for quisqualate are performed in the presence and absence of 10 µM modulator to determine the extent of potentiation / agonist potency increase. Thereafter, concentration-response curves for the positive modulator are performed in the presence of a fixed concentration of quisqualate showing the biggest window for potentiation (normally 10-30 nM).
(§1) The fluorescence signal increase after addition of agonist reflects the increase of cytosolic calcium. Inconsistencies in the amount of cells per well are normalised by using the spatial uniformity correction of the FLIPR operating software Screenworks. The mean of replicated temporal data (n=3-5) is calculated and used for graphical representation. For the evaluation of the pharmacology, the calcium changes in response to different concentrations of agonist or antagonist are determined using a maximum minus minimum (MaxMin) calculation.
(§2) All responses (RFU-values) are determined as percentage of control (= maximum response). EC50 and IC50 are calculated according the logistic equation using XLFit (IDBS, UK) or Prism 4.0 (GraphPad Software, USA). The compounds of the present invention have a potency (EC50 or IC50) within a range of about 0.5 nM to about 100 µM. The left shifts for positive or slient allosteric modulators (PAMs or SAMs, respectively) are determined by comparison of EC50 values from agonist dose response curves run in the presence of 10 µM modulator or vehicle (Vanejevs et al., J. Med. Chem., 2008, 51, 634-647).

[1] = biological target: T2, human metabotropic glutamate receptor mGluR5 (Homo sapiens, UniProt P41594); test: Cytosolic calcium studies with stably transfected cells (h5CHO), functional assay of mGluR5 receptors; type: cell-based; settings: Table A1; for h left shift: left shift of agonist EC50, dose response curves in the presence of 10 µM modulator or vehicle, h5CHO cells; for EC50: positive modulators, h5CHO cells preincubated with modulator, stimulated by an EC20 concentration of L-glutamate, read-out: hEC50
T2 construct: expressed in transfected cells; host or cells: CHO-K1 (h5CHO), IPTG-inducible
T2 sequence (P41594 21-1212): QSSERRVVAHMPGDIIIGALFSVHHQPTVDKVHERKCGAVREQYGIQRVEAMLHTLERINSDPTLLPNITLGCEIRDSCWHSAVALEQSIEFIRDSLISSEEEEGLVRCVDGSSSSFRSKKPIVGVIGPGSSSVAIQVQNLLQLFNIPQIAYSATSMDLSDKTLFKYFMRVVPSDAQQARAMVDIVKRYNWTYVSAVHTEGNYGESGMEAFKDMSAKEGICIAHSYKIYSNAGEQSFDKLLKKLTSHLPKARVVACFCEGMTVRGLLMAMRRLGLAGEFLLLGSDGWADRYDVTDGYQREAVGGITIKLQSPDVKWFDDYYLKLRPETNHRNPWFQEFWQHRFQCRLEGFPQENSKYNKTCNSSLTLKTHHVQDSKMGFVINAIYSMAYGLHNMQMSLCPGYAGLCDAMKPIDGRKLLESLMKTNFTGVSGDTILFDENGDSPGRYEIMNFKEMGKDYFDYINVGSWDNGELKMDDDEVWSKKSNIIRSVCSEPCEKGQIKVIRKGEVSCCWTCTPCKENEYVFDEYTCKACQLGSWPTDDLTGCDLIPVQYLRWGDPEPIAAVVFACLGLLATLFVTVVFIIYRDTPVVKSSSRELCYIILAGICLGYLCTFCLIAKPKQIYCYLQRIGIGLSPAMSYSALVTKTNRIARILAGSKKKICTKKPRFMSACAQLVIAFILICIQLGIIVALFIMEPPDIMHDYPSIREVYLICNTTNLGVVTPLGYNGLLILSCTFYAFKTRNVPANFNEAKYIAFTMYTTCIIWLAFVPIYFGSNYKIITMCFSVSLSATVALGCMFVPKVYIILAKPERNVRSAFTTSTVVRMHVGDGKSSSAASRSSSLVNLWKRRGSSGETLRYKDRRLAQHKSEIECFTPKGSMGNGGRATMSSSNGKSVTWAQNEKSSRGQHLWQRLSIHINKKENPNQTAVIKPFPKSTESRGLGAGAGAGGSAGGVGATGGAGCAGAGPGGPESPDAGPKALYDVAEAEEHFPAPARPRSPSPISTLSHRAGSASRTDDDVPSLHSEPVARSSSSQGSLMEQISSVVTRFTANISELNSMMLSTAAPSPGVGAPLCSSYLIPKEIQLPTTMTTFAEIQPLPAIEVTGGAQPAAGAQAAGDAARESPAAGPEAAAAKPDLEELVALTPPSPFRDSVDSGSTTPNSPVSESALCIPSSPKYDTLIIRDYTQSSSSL
Description: Chinese hamster ovary cells (CHO-K1 cells), stably transfected for inducible expression of a human metabotropic glutamate receptor mGluR5 to form a cell line called h5CHO, are seeded into black clear bottom 96 well plates at a density of 35.000 cells per well. The standard growth medium used (Dulbecco's modified Eagle Medium, DMEM plus L-proline) contains the appropriate inducer isopropyl-β-D-thiogalactopyranosid (IPTG) to achieve optimal receptor expression. One day after seeding the growth medium is exchanged for reconstituted Ca-Kit (Molecular Devices, USA) and incubated for one hour. Ca-Kit is reconstituted in an assay buffer containing 20 mM HEPES pH 7.4, glutamic-pyruvate transaminase, pyridoxal phosphate and sodium pyruvate in Hank's balanced salt solution (HBBS). Agonistic compounds to the receptor elicit increases in cytosolic calcium which can be measured as increases in fluorescence signals by use of a fluorescence imaging plate reader (Molecular Devices). To analyze their potency to negatively modulate the Ca-response test compounds, dissolved in a final DMSO concentration of 0.5%, are added on-line 5 minutes before the agonist to the receptor (L-quisqualic acid at a concentration giving ~80% of the maximal signal). EC50 values for positive allosteric modulators were determined by stimulating the cells which have been preincubated the modulators by an EC20 concentration of L-glutamate.
as §1, §2

CCCN1CCO[C@@H]2c3cc(C#Cc4ccccc4)cnc3CC[C@@H]21 (racemic) [Example 15, (rac)-cis-9-(Phenylethynyl)-4-propyl-3,4,4a,5,6,10b-hexahydro-2H-[1,4]oxazino[2,3-f]quinoline]
r left shift (mGluR5 receptors): 5.2-fold | EC50 (mGluR5 receptors): 175 nM | h left shift [1]: 3.2-fold | EC50 [1]: 88.6 nM

CCCN1CCO[C@@H]2c3cc(C#Cc4ccccc4F)cnc3CC[C@@H]21 (racemic) [Example 18, (rac)-cis-9-((2-Fluorophenyl)ethynyl)-4-propyl-3,4,4a,5,6,10b-hexahydro-2H-[1,4]oxazino[2,3-f]quinoline]
r left shift (mGluR5 receptors): 2.6-fold | EC50 (mGluR5 receptors): 613 nM | h left shift [1]: 2.6-fold | EC50 [1]: 247 nM

CCCN1CCO[C@@H]2c3cc(C#Cc4cccc(F)c4)cnc3CC[C@@H]21 (racemic) [Example 19, (rac)-cis-9-((3-Fluorophenyl)ethynyl)-4-propyl-3,4,4a,5,6,10b-hexahydro-2H-[1,4]oxazino[2,3-f]quinoline]
r left shift (mGluR5 receptors): 2.6-fold | EC50 (mGluR5 receptors): 323 nM | h left shift [1]: 1.9-fold | EC50 [1]: 188 nM

CCCN1CCO[C@@H]2c3cc(C#Cc4ccc(F)cc4)cnc3CC[C@@H]21 (racemic) [Example 20, (rac)-cis-9-((4-Fluorophenyl)ethynyl)-4-propyl-3,4,4a,5,6,10b-hexahydro-2H-[1,4]oxazino[2,3-f]quinoline]
r left shift (mGluR5 receptors): 3.3-fold | EC50 (mGluR5 receptors): 1350 nM | h left shift [1]: 1.8-fold | EC50 [1]: 394 nM

CCCN1CCO[C@H]2c3cc(C#Cc4ccccc4)cnc3CC[C@@H]21 (racemic) [Example 22, (rac)-trans-9-(Phenylethynyl)-4-propyl-3,4,4a,5,6,10b-hexahydro-2H-[1,4]oxazino[2,3-f]quinoline]
r left shift (mGluR5 receptors): 1.8-fold | h left shift [1]: 2.2-fold | EC50 [1]: 1800 nM

CC(C)CN1CCO[C@@H]2c3cc(C#Cc4ccccc4)cnc3CC[C@@H]21 (racemic) [Example 23, (rac)-cis-4-Isobutyl-9-(phenylethynyl)-3,4,4a,5,6,10b-hexahydro-2H-[1,4]oxazino[2,3-f]quinoline]
r left shift (mGluR5 receptors): 11.7-fold | EC50 (mGluR5 receptors): 132 nM | h left shift [1]: 5.3-fold | EC50 [1]: 4 nM

FC(F)(F)CN1CCO[C@@H]2c3cc(C#Cc4ccccc4)cnc3CC[C@@H]21 (racemic) [Example 24, (rac)-cis-9-(Phenylethynyl)-4-(2,2,2-trifluoroethyl)-3,4,4a,5,6,10b-hexahydro-2H-[1,4]oxazino[2,3-f]quinoline]
r left shift (mGluR5 receptors): 4.2-fold | EC50 (mGluR5 receptors): 134 nM | h left shift [1]: 2.1-fold | EC50 [1]: 65.3 nM

FC(F)(F)CCN1CCO[C@@H]2c3cc(C#Cc4ccccc4)cnc3CC[C@@H]21 (racemic) [Example 25, (rac)-cis-9-(Phenylethynyl)-4-(3,3,3-trifluoropropyl)-3,4,4a,5,6,10b-hexahydro-2H-[1,4]oxazino[2,3-f]quinoline]
r left shift (mGluR5 receptors): 3.6-fold | EC50 (mGluR5 receptors): 136 nM | h left shift [1]: 2.0-fold | EC50 [1]: 36.9 nM

COC(=O)N1CCO[C@@H]2c3cc(C#Cc4ccccc4)cnc3CC[C@@H]21 (racemic) [Example 26, (rac)-cis-Methyl 9-(phenylethynyl)-4a,5,6,10b-tetrahydro-2H-[1,4]oxazino[2,3-f]quinoline-4(3H)-carboxylate]
r left shift (mGluR5 receptors): 4.4-fold | EC50 (mGluR5 receptors): 599 nM | h left shift [1]: 2.9-fold | EC50 [1]: 958 nM

CN(C)C(=O)N1CCO[C@@H]2c3cc(C#Cc4ccccc4)cnc3CC[C@@H]21 (racemic) [Example 27, (rac)-cis-N,N-Dimethyl-9-(phenylethynyl)-4a,5,6,10b-tetrahydro-2H [1,4]oxazino[2,3-f]quinoline-4(3H)-carboxamide]
r left shift (mGluR5 receptors): 3.3-fold | EC50 (mGluR5 receptors): 427 nM | h left shift [1]: 2.4-fold | EC50 [1]: 884 nM

CC(C)(C)[S+]([O-])N1CCc2ncc(C#Cc3ccccc3)cc2C1 (racemic) [Example 37, (rac)-6-(tert-Butylsulfinyl)-3-(phenylethynyl)-5,6,7,8-tetrahydro-1,6-naphthyridine]
r left shift (mGluR5 receptors): 3.3-fold | EC50 (mGluR5 receptors): 508 nM | h left shift [1]: 2.5-fold | EC50 [1]: 472 nM

COC(=O)N1C2CCC1c1cc(C#Cc3ccccc3)cnc1C2 (racemic) [Example 58, (rac)-Methyl 3-(phenylethynyl)-6,7,8,9-tetrahydro-5H-5,8-epiminocyclohepta[b]pyridine-10-carboxylate]
r left shift (mGluR5 receptors): 3.9-fold | EC50 (mGluR5 receptors): 113 nM | h left shift [1]: 2.3-fold | EC50 [1]: 201 nM

COC(=O)N1C2CCC1c1cc(C#Cc3cccc(F)c3)cnc1C2 (racemic) [Example 59, (rac)-Methyl 3-((3-fluorophenyl)ethynyl)-6,7,8,9-tetrahydro-5H-5,8-epiminocyclohepta[b]pyridine-10-carboxylate]
r left shift (mGluR5 receptors): 3.3-fold | EC50 (mGluR5 receptors): 102 nM | h left shift [1]: 1.8-fold | EC50 [1]: 277 nM

O=C(N1CCC1)N1CCO[C@@H]2c3cc(C#Cc4ccccc4)cnc3CC[C@@H]21 (racemic) [Example 65, (rac)-cis-Azetidin-1-yl-(9-(phenylethynyl)-5,6-dihydro-2H-[1,4]oxazino[2,3-f]quinolin-4(3H,4aH,10bH)-yl)methanone]
EC50 (mGluR5 receptors): 3200 nM | h left shift [1]: 1.8-fold

O=C1OC2(CCCc3ncc(C#Cc4cccc(F)c4)cc32)CN1c1ccccc1 (racemic) [Example 67, (rac)-3'-((3-Fluorophenyl)ethynyl)-3-phenyl-7',8'-dihydro-6'H-spiro[oxazolidine-5,5'-quinolin]-2-one]
r left shift (mGluR5 receptors): 1.7-fold | EC50 (mGluR5 receptors): 88.3 nM | h left shift [1]: 2.1-fold | EC50 [1]: 1310 nM

COC(=O)N1C[C@H]2Cc3cc(C#Cc4cccc(F)c4)cnc3[C@H]2C1 (racemic) [Example 73, (rac)-cis-Methyl 3-((3-fluorophenyl)ethynyl)-5a,6,8,8a-tetrahydropyrrolo[3',4':4,5]cyclopenta[1,2-b]pyridine-7(5H)-carboxylate]
r left shift (mGluR5 receptors): 2.7-fold | EC50 (mGluR5 receptors): 219 nM | h left shift [1]: 2.7-fold | EC50 [1]: 546 nM
